Laboratory results as given in US7205317B2, “4[piperidin-4-yliden-(3-carbamoylpheny)methyl]benzamide derivatives and their use for the treatment of pain spinal injuries or gastrointestinal disorders” (AstraZeneca AB, priority 2001, dated 2007).

Columns and labels:
[1] = molecular target: T1, cloned human δ receptor (HDELTA) (Homo sapiens, UniProt P41143); assay: Binding assay, displacement of radioligand on membranes of 293S cells expressing cloned human δ receptor; conditions: 293S cell membranes
T1 construct: expressed in transfected cells; host or cells: human 293S (HEK-293S) cells, geneticin-selected

[2] = molecular target: T1, cloned human δ receptor (HDELTA); assay: GTP[γ]35S binding functional assay, membranes from HEK-293S cells expressing cloned human opioid receptors; format: biochemical
Experimental: (§1) • A. Human 293S cells expressing cloned human μ, δ, and κ receptors and neomycin resistance were grown in suspension at 37° C. and 5% CO2 in shaker flasks containing calcium-free DMEM 10% FBS, 5% BCS, 0.1% Pluronic F-68, and 600 μg/ml geneticin. • B. Mouse and rat brains were weighed and rinsed in ice-cold PBS (containing 2.5 mM EDTA, pH 7.4). The brains were homogenized with a polytron for 15 sec (mouse) or 30 sec (rat) in ice-cold lysis buffer (50 mM Tris, pH 7.0, 2.5 mM EDTA, with phenylmethylsulfonyl fluoride added just prior use to […] from a 0.5M stock in DMSO:ethanol). Membrane Preparation
Cells were pelleted and resuspended in lysis buffer (50 mM Tris, pH 7.0, 2.5 mM EDTA, with PMSF added just prior to use to 0.1 mM from a 0.1 M stock in ethanol), incubated on ice for 15 min, then homogenized with a polytron for 30 sec. The suspension was spun at 1000 g (max) for 10 min at 4° C. The supernatant was saved on ice and the pellets resuspended and spun as before. The supernatants from both spins were combined and spun at 46,000 g (max) for 30 min. The pellets were resuspended in cold Tris buffer (50 mM Tris/Cl, pH 7.0) and spun again. The final pellets were resuspended in membrane buffer (50 mM Tris, 0.32 M sucrose, pH 7.0). Aliquots (1 ml) in polypropylene tubes were frozen in dry ice/ethanol and stored at −70° C. until use. The protein concentrations were determined by a modified Lowry assay with sodium dodecyl sulfate.
(§2) The agonist activity of the compounds is measured by determining the degree to which the compounds receptor complex activates the binding of GTP to G-proteins to which the receptors are coupled. In the GTP binding assay, GTP[γ]^35S is combined with test compounds and membranes from HEK-293S cells expressing the cloned human opioid receptors or from homogenised rat and mouse brain. Agonists stimulate GTP[γ]^35S binding in these membranes. The EC50 and Emax values of compounds are determined from dose-response curves. Right shifts of the dose response curve by the delta antagonist naltrindole are performed to verify that agonist activity is mediated through delta receptors.

[3] = molecular target: T2, delta receptors, rat brain membranes (Rattus norvegicus, UniProt P33533); assay: GTP[γ]35S binding functional assay, homogenised rat brain; format: biochemical
T2 construct: from tissue; host or cells: rat brain homogenate
Experimental: as §1, §2

[4] = molecular target: T3, delta receptors, mouse brain membranes (Mus musculus, UniProt P32300); assay: GTP[γ]35S binding functional assay, homogenised mouse brain; format: biochemical
T3 construct: from tissue; host or cells: mouse brain homogenate
Experimental: as §1, §2

T3 sequence (P32300 whole entry): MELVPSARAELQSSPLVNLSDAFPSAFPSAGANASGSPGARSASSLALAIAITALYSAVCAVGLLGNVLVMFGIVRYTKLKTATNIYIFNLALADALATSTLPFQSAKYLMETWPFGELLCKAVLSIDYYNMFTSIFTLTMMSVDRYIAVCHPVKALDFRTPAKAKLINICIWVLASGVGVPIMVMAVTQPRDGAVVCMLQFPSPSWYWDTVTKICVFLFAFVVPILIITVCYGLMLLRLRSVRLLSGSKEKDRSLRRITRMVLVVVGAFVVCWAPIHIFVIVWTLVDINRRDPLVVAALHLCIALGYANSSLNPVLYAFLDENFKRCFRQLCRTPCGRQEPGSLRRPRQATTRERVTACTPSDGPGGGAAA
T1 sequence (P41143 whole entry): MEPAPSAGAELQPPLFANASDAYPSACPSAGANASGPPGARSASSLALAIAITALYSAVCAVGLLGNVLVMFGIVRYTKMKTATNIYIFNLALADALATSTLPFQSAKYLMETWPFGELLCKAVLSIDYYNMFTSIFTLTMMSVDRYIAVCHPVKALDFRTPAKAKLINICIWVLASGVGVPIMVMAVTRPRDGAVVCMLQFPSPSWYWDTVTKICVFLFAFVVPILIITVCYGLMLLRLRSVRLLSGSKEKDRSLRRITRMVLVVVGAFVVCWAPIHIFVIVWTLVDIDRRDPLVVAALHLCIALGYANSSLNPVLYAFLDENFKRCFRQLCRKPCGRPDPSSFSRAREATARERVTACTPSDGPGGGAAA
T2 sequence (P33533 whole entry): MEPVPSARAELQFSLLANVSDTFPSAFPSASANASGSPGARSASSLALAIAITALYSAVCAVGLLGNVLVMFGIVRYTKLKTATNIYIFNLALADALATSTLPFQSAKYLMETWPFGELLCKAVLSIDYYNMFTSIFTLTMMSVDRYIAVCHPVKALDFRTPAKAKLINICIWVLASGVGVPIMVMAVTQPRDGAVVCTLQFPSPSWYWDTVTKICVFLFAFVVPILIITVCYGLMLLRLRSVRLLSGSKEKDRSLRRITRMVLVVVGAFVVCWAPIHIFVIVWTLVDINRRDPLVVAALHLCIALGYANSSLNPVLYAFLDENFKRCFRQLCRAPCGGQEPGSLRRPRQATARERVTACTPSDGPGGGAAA

SMILES	IC50 [1] [nM]	EC50 [2] [nM]	Emax [2] [%]	EC50 [3] [nM]	Emax [3] [%]	EC50 [4] [nM]	Emax [4] [%]
CCN(CC)C(=O)c1ccc(C(=C2CCN(Cc3ccccc3)CC2)c2cccc(C(N)=O)c2)cc1 [3b, N,N-Diethyl-4-[1-benzylpiperidin-4-ylidene(3-carbamoylphenyl)-methyl]-benzamide]	0.548	0.091	93.8	0.403	179	0.539	165
CCN(CC)C(=O)c1ccc(C(=C2CCN(Cc3cccs3)CC2)c2cccc(C(N)=O)c2)cc1 [5a]	0.373	0.158	98.1	0.613	181	0.818	170
CCN(CC)C(=O)c1ccc(C(=C2CCN(Cc3ccco3)CC2)c2cccc(C(N)=O)c2)cc1 [5b]	0.282			0.633	149		
CCN(CC)C(=O)c1ccc(C(=C2CCN(Cc3ccoc3)CC2)c2cccc(C(N)=O)c2)cc1 [5c]	0.246			0.367	170		
CCN(CC)C(=O)c1ccc(C(=C2CCN(Cc3ccccn3)CC2)c2cccc(C(N)=O)c2)cc1 [5d, N,N-Diethyl-4-[1-(2-pyridine)methyl-piperidin-4-ylidene-(3-carbamoylphenyl)-methyl]-benzamide]	0.278			0.396	180		
CCN(CC)C(=O)c1ccc(C(=C2CCN(Cc3ccsc3)CC2)c2cccc(C(N)=O)c2)cc1 [5e, N,N-Diethyl-4-[1-(3-thiophene)methyl-piperidin-4-ylidene-(3-carbamoylphenyl)-methyl]-benzamide]	0.235						
